Reference: ChEMBL document CHEMBL1148250, “MexAB-OprM specific efflux pump inhibitors in Pseudomonas aeruginosa. Part 4: Addressing the problem of poor stability due to photoisomerization of an acrylic acid moiety” (2004)

Experiments:
Type in all cases: functional
Pseudomonas aeruginosa [1] = assay: Minimum concentration (using PAM1723, a strain of Pseudomonas aeruginosa) required to reduce antibacterial activity by 4 folds for Levofloxacin
Pseudomonas aeruginosa [2] = assay: Minimum concentration (using PAM1723, a strain of Pseudomonas aeruginosa) required to reduce antibacterial activity by 8 folds for Levofloxacin
Pseudomonas aeruginosa [3] = assay: Minimum concentration (using PAM1723, a strain of Pseudomonas aeruginosa) required to reduce antibacterial activity by 8 folds for aztreonam in the absence of human serum albumin
Pseudomonas aeruginosa [4] = assay: Minimum concentration (using PAM1723, a strain of Pseudomonas aeruginosa) required to reduce antibacterial activity by 8 folds for aztreonam in the presence 0.125% of human serum albumin

SMILES | MPC4 (Pseudomonas aeruginosa [1]) [µg/mL] | MPC8 (Pseudomonas aeruginosa [2]) [µg/mL] | MPC8 (Pseudomonas aeruginosa [3]) [µg/mL] | MPC8 (Pseudomonas aeruginosa [4]) [µg/mL]
CC(C)(C)c1csc(NC(=O)c2ccn3c(=O)c(/C=C/C(=O)O)c(N4CCC[C@@H](OC(N)=O)C4)nc3c2)n1 | <0.25 | 1 | 0.5 | 1
CC(C)c1csc(CCc2ccn3c(=O)c(/C=C/C(=O)O)c(N4CCCC(O)C4)nc3c2)n1 (stereo unspecified) | 0.5 | 8 | 8 | 16
CC(C)(C)c1csc(NC(=O)c2ccn3c(=O)c(/C=C/c4nnn[nH]4)c(N4CCC[C@@H](OC(N)=O)C4)nc3c2)n1 | <0.25 | 0.5 | <0.25 | 2
CC(C)(C)c1csc(NC(=O)c2ccn3c(=O)c(/C=C/c4nn[nH]n4)c(N4CCC[C@H](OC(N)=O)C4)nc3c2)n1 | 0.5 | 2 | 1 | 4
